In patent KR20210056931A, “피리메타민을 유효성분으로 포함하는 면역 관련 질환의 치료 또는 예방용 약학 조성물” (priority 2019, dated 2021):
Where “and” joins values, the source holds several entries; their conditions need not be identical. Equal values may be shown once.

How the values were obtained:
[1] = tested on: TNF-α; experiment: TNF-α expression inhibition in Raw264.7, comparison with DMARDs, Experiment 2-1; format: cell-based; conditions: 6 h pretreatment, LPS 10 ng/mL, MTX 344 nM, HCQ 610 nM, PYR 50 ng/mL, CsA 391 ng/mL, AZA 25 ng/mL, SFZ 750 ng/mL
[2] = tested on: rheumatoid arthritis model, DBA-1J Mice [류마티스 관절염 모델]; experiment: Arthritis score in rheumatoid arthritis animal model, dose regimen study, Experiment 6; format: in vivo, mouse; conditions: MTX 2 mg/kg/2day PO, HCQ 80 mg/kg/day QD PO, PG 25 mg/kg/day QD PO, TFC 10 mg/kg/day BID PO (G3-G6)
[3] = tested on: rheumatoid arthritis model, DBA-1J Mice [류마티스 관절염 모델]; experiment: Histopathological examination in rheumatoid arthritis animal model, dose regimen study, Experiment 6; format: in vivo, mouse; conditions: Day 14; MTX 2 mg/kg/2day PO, HCQ 80 mg/kg/day QD PO, PG 25 mg/kg/day QD PO, TFC 10 mg/kg/day BID PO (G3-G6)
[4] = tested on: rheumatoid arthritis model, DBA-1J Mice [류마티스 관절염 모델]; experiment: Paw edema in rheumatoid arthritis animal model, Experiment 5; format: in vivo, mouse; conditions: G3: MTX 2 mg/kg/2day PO
[5] = tested on: rheumatoid arthritis model, DBA-1J Mice [류마티스 관절염 모델]; experiment: Histopathological examination in rheumatoid arthritis animal model, Experiment 5; format: in vivo, mouse; conditions: Day 14; G3: MTX 2 mg/kg/2day PO
[6] = tested on: TNF-α; experiment: Plasma TNF-α (ELISA), Experiment 6-5; format: in vivo, mouse; conditions: Day 14; MTX 2 mg/kg/2day PO, HCQ 80 mg/kg/day QD PO, PG 25 mg/kg/day QD PO, TFC 10 mg/kg/day BID PO (G3-G6)
[7] = Hematological examination, Experiment 6-4; format: in vivo, mouse
[8] = tested on: rheumatoid arthritis model, DBA-1J Mice [류마티스 관절염 모델]; experiment: Arthritis score in rheumatoid arthritis animal model, Experiment 5; format: in vivo, mouse; conditions: G3: MTX 2 mg/kg/2day PO
[9] = tested on: rheumatoid arthritis model, DBA-1J Mice [류마티스 관절염 모델]; experiment: Paw edema in rheumatoid arthritis animal model, dose regimen study, Experiment 6; format: in vivo, mouse; conditions: Day 14, MTX 2 mg/kg/2day PO, HCQ 80 mg/kg/day QD PO, PG 25 mg/kg/day QD PO, TFC 10 mg/kg/day BID PO (G3-G6)
[10] = Day 14, G3: MTX 2 mpk qd PO, G12: Py 15 mpk qd PO

Cn1cnc([N+](=O)[O-])c1Sc1ncnc2nc[nH]c12 [AZA, Azathioprine]
TNF-α expression ([1]; 2hr): 405.0 pg/mL | TNF-α expression ([1]; 24hr): 3539.9 pg/mL

O=C(O)c1cc(/N=N/c2ccc(S(=O)(=O)Nc3ccccn3)cc2)ccc1O [SFZ, Sulfasalazine]
TNF-α expression ([1]; 2hr): 280.7 pg/mL | TNF-α expression ([1]; 24hr): 3578.2 pg/mL

CN(Cc1cnc2nc(N)nc(N)c2n1)c1ccc(C(=O)N[C@@H](CCC(=O)O)C(=O)O)cc1 [메토트렉세이트, Methotrexate]
Arthritis score ([2]; Day 0): 2.5±1.0 total score | Arthritis score ([2]; Day 2): 3.7±1.6 total score | Arthritis score ([2]; Day 5): 5.0±2.4 total score | Arthritis score ([2]; Day 7): 6.0±2.9 total score | Arthritis score ([2]; Day 9): 6.3±2.9 total score | Arthritis score ([2]; Day 12): 7.2±2.7 total score | Arthritis score ([2]; Day 14): 7.8±3.4 total score | TNF-α expression ([1]; 2hr): 312.8 pg/mL | TNF-α expression ([1]; 24hr): 3464.6 pg/mL | Bone destruction [3]: 1.8±1.0 | Cartilage damage [3]: 1.0±0.6 | Histopathological examination, total [3]: 5.7±1.2 | Synovium proliferation [3]: 2.8±0.4 | Paw edema, LEFT ([4]; Day 0): 0.10 ± 0.01 mL | Paw edema, RIGHT ([4]; Day 0): 0.10 ± 0.01 mL | Paw edema, LEFT ([4]; Day 14): 0.13 ± 0.04 mL | Paw edema, RIGHT ([4]; Day 14): 0.16 ± 0.05 mL | Bone destruction [5]: 1.3±1.6 | Cartilage damage [5]: 1.0±1.4 | Histopathological examination, total [5]: 3.6±4.5 | Synovium proliferation [5]: 1.3±1.6 | Plasma TNF-α [6]: 769.1 pg/mL | %BASO [7, 10]: 0.6±0.3% | %EOS [7, 10]: 1.8±1.7% | %LUC [7, 10]: 2.8±1.2% | %LYM [7, 10]: 40.8±9.9% | %MONO [7, 10]: 4.2±1.5% | %NEUT [7, 10]: 49.8±11.7% | %RETIC [7, 10]: 0.63±1.16% | HCT [7, 10]: 38.2±6.0% | HDW [7, 10]: 2.15 ± 0.13 g/dL | HGB [7, 10]: 10.9 ± 1.7 g/dL | MCH [7, 10]: 12.8 ± 0.8 pg | MCV [7, 10]: 44.8 ± 2.9 fL | MPV [7, 10]: 7 ± 0.8 fL | PLT [7, 10]: 440±386 10^3 cell/μL | RDW [7, 10]: 23.4±3.7% | WBC [7, 10]: 4.55±0.52 10^3 cell/μL | Hematotoxicity (in words) ([7]; G3 (MTX)): 적혈구와 혈소판 수치가 감소하는 독성이 나타났다 | Arthritis score ([8]; Day 0): 2.3±1.6 Total score | Arthritis score ([8]; Day 2): 2.9±1.8 Total score | Arthritis score ([8]; Day 4): 4.6±2.9 Total score | Arthritis score ([8]; Day 7): 5.7±2.5 Total score | Arthritis score ([8]; Day 9): 6.0±2.4 Total score | Arthritis score ([8]; Day 11): 6.6±2.4 Total score | Arthritis score ([8]; Day 14): 6.9±2.5 Total score | Paw edema, HL, mean [9]: 0.16 mL | Paw edema, HR, mean [9]: 0.16 mL | Paw edema, HL, individual animal ([9]; listed as MTX): 0.19 mL and 0.16 mL and 0.15 mL and 0.17 mL and 0.18 mL and 0.11 mL | Paw edema, HR, individual animal ([9]; listed as MTX): 0.17 mL and 0.14 mL and 0.19 mL and 0.20 mL and 0.13 mL and 0.11 mL
